According to patent publication US20250041412A1, “TRANSMEMBRANE NEOANTIGENIC PEPTIDES” (INSTITUT CURIE, priority 2021, published 2025):
“Also recorded” adds a separate entry of the source.

How the values were obtained:
CD8+ T cells [1] = assay: Priming of naive CTLs by peptide-loaded moDCs, two-colour tetramer staining (immunogenicity); format: cell-based, human; details: for specific CD8+ T expansions (immunogenicity): total of 6 HLA-A2+ healthy donors, FIG. 12A; for expansion of specific CD8+ T cells (tetramer staining): one HLA-A2+ healthy donor, at least one magnitude order more tetramer positive cells than control without peptides
Description: Priming of naïve CTLs. PBMCs were obtained by Ficoll gradient separation from HLA-A2+healthy blood donors. CD14+, CD4+ and CD8+ cells were purified by positive selection using magnetic beads (Miltenyi Biotec). While CD4+ and CD8+ T cells were cryopreserved until the experiment day, CD14+ fraction was cultured in the presence of IL-4 (50 ng/mL) and GM-CSF (10 ng/mL) at 10^6 cells/mL during 5 days to obtain moDCs. After this period of time, the moDCs were maturated with LPS and incubated with synthetic ER-derived peptides at a final concentration of 1 μg/mL for 2 hours. Finally, peptide-loaded moDCs were co-cultured with autologous CD4+ and CD8+ T cells in culture medium supplemented with IL-2 (10 U/ml) and IL-7 (100 ng/ml). The ER-derived peptide stimulation of specific CD8+CTL populations was assessed by MHC-I tetramer staining by flow cytometry using a combination of two-color tetramer for each peptide.
(§1) Tetramer Staining. Cells were resuspended in PBS, stained with Live/Dead Aqua-405 nm (ThermoFisher) during 20 minutes at 4° C. and washed once. After that, cells were resuspended in PBS-1% BSA containing the mix of SA-coupled tetramers and incubated in the dark at room temperature during 20 minutes. Without further washing, surface antibodies were added in PBS-1% BSA and cells were incubated 20 minutes in the dark at 4° C. Surface antibodies were a combination of anti-CD3-BV650+anti-CD8-PECy7 in combination with anti-CCR7-AF700+anti-CD45RA-BUV395 when required. Finally, cells were washed twice and resuspended in FACS buffer for flow cytometry analysis.
Priming assays were thus performed to test the ability of identified peptides to expand specific cytotoxic T cells. PBMCs from HLA-A2+healthy donors were used to generate monocyte derived-DCs (moDCs). After loading the moDCs with a mix of synthetic peptides, autologous co-culture was performed with CD4+ and CD8+ T cells. Finally, the expansion of specific CD8+ T cells was analysed by flow cytometry using two-colours tetramer staining. As a control of specific expansion, the co-culture was performed in the absence of peptides.
The same experiment was performed in order to evaluate the response in additional 5 donors. […] As a positive of expansions, mutated Melan-A peptide ([…]) were used.

CD8+ T cells [2] = assay: Tetramer staining of CD8+ T cells from LUAD patient samples (TILs, tumor, juxta tumor, lymph nodes, blood); format: cell-based, human; details: TILs from LUAD patients expanded with peptide mix + IL-2 or IL-2 only
Description: as §1
Tissues and Blood samples. […]
Tumor infiltrating lymphocytes (TILs) cultures. […] Cells were feed/split as necessary during 15-20 days and cryopreserve or analyzed for tetramer staining.
In a first set of experiments tumor infiltrating lymphocytes (TILs) expanded with a mix of TE-derived peptides and Il-2, or only with Il-2, were analyzed by tetramer staining. […]
Using this strategy, CD8+ T cells present in Tumor, juxta-tumor, invaded lymph-nodes and blood derived from LUAD patient samples were thus analyzed. The cell phenotype was determined based on the expression of surface markers CCR7 and CD45RA for Naïve (CCR7+CD45+), Central Memory (CM, CCR7+CD45RA−) Effector Memory (EM, CCR7−CD45−) and Terminal Effectors (TE, CCR7−CD45+) T cells. […]

[3] = molecular target: T1, HLA-A2 molecule (HLA-A*02:01), recombinant monomer (human); assay: HLA-A2 monomer stabilisation and tetramer formation with synthetic peptide, flow cytometry with PE anti-b2m; positive control CMV peptide
T1 construct: Peptide-free monomer that is incubated with a synthetic peptide for 48 h at 18 C; also called HLA-A2 allele; HLA-A2 monomers

MLMKTVWQA
specific CD8+ T expansions (immunogenicity) (CD8+ T cells [1]): specific CD8+ T expansions

ILHSLVTGV
specific CD8+ T expansions (immunogenicity) (CD8+ T cells [1]): specific CD8+ T expansions

RQAPGFHHA
specific CD8+ T expansions (immunogenicity) (CD8+ T cells [1]): specific CD8+ T expansions

LLDRFGYHV
specific CD8+ T expansions (immunogenicity) (CD8+ T cells [1]): specific CD8+ T expansions

FLIVAEILI
expansion of specific CD8+ T cells (tetramer staining) (CD8+ T cells [1]): expand specific CD8+ T cells

SLMQSGSPV
specific CD8+ T expansions (immunogenicity) (CD8+ T cells [1]): specific CD8+ T expansions

VLLTNTIWL
specific CD8+ T expansions (immunogenicity) (CD8+ T cells [1]): specific CD8+ T expansions

ILTASITSI
specific CD8+ T expansions (immunogenicity) (CD8+ T cells [1]): specific CD8+ T expansions

GLLNISHTA
specific CD8+ T expansions (immunogenicity) (CD8+ T cells [1]): specific CD8+ T expansions

LLTSWHLYL
specific CD8+ T expansions (immunogenicity) (CD8+ T cells [1]): specific CD8+ T expansions

AMDGKELSL
specific CD8+ T expansions (immunogenicity) (CD8+ T cells [1]): specific CD8+ T expansions

MLVTWELAL
specific CD8+ T expansions (immunogenicity) (CD8+ T cells [1]): specific CD8+ T expansions

LLHLESFLV
specific CD8+ T expansions (immunogenicity) (CD8+ T cells [1]): specific CD8+ T expansions

VLMWTMAHL
specific CD8+ T expansions (immunogenicity) (CD8+ T cells [1]): specific CD8+ T expansions

RLADHLSFC
expansion of specific CD8+ T cells (tetramer staining) (CD8+ T cells [1]): expand specific CD8+ T cells
specific CD8+ T expansions (immunogenicity) (CD8+ T cells [1]): specific CD8+ T expansions; also recorded: immunogenic

YLWTTFFPL
expansion of specific CD8+ T cells (tetramer staining) (CD8+ T cells [1]): expand specific CD8+ T cells
specific CD8+ T expansions (immunogenicity) (CD8+ T cells [1]): specific CD8+ T expansions

FLGTRVTRV
specific CD8+ T expansions (immunogenicity) (CD8+ T cells [1]): specific CD8+ T expansions

AILPKANTV
expansion of specific CD8+ T cells (tetramer staining) (CD8+ T cells [1]): expand specific CD8+ T cells
specific CD8+ T expansions (immunogenicity) (CD8+ T cells [1]): specific CD8+ T expansions

ILSGYGPCV
specific CD8+ T expansions (immunogenicity) (CD8+ T cells [1]): specific CD8+ T expansions

RLLHLESFL
expansion of specific CD8+ T cells (tetramer staining) (CD8+ T cells [1]): expand specific CD8+ T cells
specific CD8+ T expansions (immunogenicity) (CD8+ T cells [1]): specific CD8+ T expansions

YLPYFLKSL
specific CD8+ T expansions (immunogenicity) (CD8+ T cells [1]): specific CD8+ T expansions

GLPSHVELA
CD8+ T cells / TILs recognizing the peptide (tetramer positive) (CD8+ T cells [2]): found TILs recognizing peptide
specific CD8+ T expansions (immunogenicity) (CD8+ T cells [1]): specific CD8+ T expansions; also recorded: immunogenic

LLGETKVYV
expansion of specific CD8+ T cells (tetramer staining) (CD8+ T cells [1]): expand specific CD8+ T cells
specific CD8+ T expansions (immunogenicity) (CD8+ T cells [1]): specific CD8+ T expansions

RLLHLESFL (Synthetic peptide) [chimeric transcript-derived peptide RLLHLESFL]
percentage of fluorescence relative to positive control (HLA-A2 tetramer formation) [3]: > 50%

B1: chimeric transcript-derived peptide MLMKTVWQA (peptide)
peptide: MLMKTVWQA
notes: Synthetic peptide; also called peptide 80
percentage of fluorescence relative to positive control (HLA-A2 tetramer formation) [3]: > 50%

FLGTRVTRV (Synthetic peptide) [chimeric transcript-derived peptide FLGTRVTRV]
percentage of fluorescence relative to positive control (HLA-A2 tetramer formation) [3]: > 50%

AILPKANTV (Synthetic peptide) [chimeric transcript-derived peptide AILPKANTV]
percentage of fluorescence relative to positive control (HLA-A2 tetramer formation) [3]: > 50%

YLPYFLKSL (Synthetic peptide) [chimeric transcript-derived peptide YLPYFLKSL]
percentage of fluorescence relative to positive control (HLA-A2 tetramer formation) [3]: > 50%

AMDGKELSL (Synthetic peptide) [chimeric transcript-derived peptide AMDGKELSL]
percentage of fluorescence relative to positive control (HLA-A2 tetramer formation) [3]: > 50%

FLIVAEILI (Synthetic peptide) [chimeric transcript-derived peptide FLIVAEILI]
percentage of fluorescence relative to positive control (HLA-A2 tetramer formation) [3]: > 50%

B2: chimeric transcript-derived peptide RLADHLSFC (peptide)
peptide: RLADHLSFC
notes: Synthetic peptide; also called peptide 64
percentage of fluorescence relative to positive control (HLA-A2 tetramer formation) [3]: > 50%
